Laboratory results taken from patent US7750003B2, “Compounds-943” (AstraZeneca AB, priority 2006, dated 2010).

Target: recombinant mTOR (FLAG-tagged, residues 1362-2549) (Homo sapiens, UniProt P42345)
Experiment: In vitro mTOR kinase assay (Test (a), AlphaScreen)
Format: biochemical
Settings: ATP 20 μM, read-out: Test (a): IC50 versus mTOR kinase
In short: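 AlphaScreen read-out: a phospho-T389 p70 S6K antibody on acceptor beads captures the phosphorylated biotin-peptide on donor beads, with signal loss indicating inhibition.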

Chain of recombinant mTOR (FLAG-tagged, residues 1362-2549) (P42345 1362-2549): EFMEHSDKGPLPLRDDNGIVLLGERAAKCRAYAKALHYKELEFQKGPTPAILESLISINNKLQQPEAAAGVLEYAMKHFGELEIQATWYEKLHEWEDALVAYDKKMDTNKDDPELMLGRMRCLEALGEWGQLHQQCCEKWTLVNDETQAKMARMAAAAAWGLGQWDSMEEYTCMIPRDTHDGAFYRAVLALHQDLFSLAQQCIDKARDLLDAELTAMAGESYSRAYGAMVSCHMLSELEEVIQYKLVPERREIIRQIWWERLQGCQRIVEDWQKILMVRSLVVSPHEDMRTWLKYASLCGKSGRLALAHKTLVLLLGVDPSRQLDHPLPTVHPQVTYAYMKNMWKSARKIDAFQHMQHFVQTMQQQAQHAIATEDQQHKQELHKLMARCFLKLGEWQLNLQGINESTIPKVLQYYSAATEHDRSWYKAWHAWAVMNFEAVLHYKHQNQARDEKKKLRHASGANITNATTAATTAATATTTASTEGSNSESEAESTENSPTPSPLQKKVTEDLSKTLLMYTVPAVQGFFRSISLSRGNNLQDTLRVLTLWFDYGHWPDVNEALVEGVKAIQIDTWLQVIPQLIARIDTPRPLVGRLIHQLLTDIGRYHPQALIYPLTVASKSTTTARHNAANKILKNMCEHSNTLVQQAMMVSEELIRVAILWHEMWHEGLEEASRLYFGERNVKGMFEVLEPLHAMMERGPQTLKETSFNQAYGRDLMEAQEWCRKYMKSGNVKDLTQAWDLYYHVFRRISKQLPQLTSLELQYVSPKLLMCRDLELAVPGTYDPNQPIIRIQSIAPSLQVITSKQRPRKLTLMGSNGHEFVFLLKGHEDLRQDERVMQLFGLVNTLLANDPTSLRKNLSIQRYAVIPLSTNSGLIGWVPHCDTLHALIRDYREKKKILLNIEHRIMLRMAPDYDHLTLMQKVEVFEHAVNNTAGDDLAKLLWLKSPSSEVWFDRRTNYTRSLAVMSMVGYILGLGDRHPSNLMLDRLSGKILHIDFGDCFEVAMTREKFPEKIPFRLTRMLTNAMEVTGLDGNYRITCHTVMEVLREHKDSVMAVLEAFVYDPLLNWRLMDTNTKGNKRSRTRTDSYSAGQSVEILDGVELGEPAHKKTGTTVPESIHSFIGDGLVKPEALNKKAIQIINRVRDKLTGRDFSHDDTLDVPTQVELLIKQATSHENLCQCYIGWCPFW

| IC50 | SMILES |
| --- | --- |
| 4700 nM | C[C@H]1COCCN1c1cc(COc2ccccc2)nc(-c2ccc(NC(=O)Nc3ccccc3)cc2)n1 [Example 28, 1-[4-[4-[(3S)-3-Methylmorpholin-4-yl]-6-(phenoxymethyl)pyrimidin-2-yl]phenyl]-3-phenyl-urea] |
| 35 nM | CCNC(=O)Nc1ccc(-c2nc(CS(=O)(=O)c3ccccc3)cc(N3CCOC[C@@H]3C)n2)cc1 [Example 20f, 3-[4-[4-(benzenesulfonylmethyl)-6-[(3S)-3-methylmorpholin-4-yl]pyrimidin-2-yl]phenyl]-1-ethyl-urea] |
| 43 nM | C[C@H]1COCCN1c1cc(CS(C)(=O)=O)nc(-c2ccc(NC(=O)Nc3ccc(F)cc3)nc2)n1 [Example 1j, 3-(4-fluorophenyl)-1-[5-[4-[(3S)-3-methylmorpholin-4-yl]-6-(methylsulfonylmethyl)pyrimidin-2-yl]pyridin-2-yl]urea] |
| 30 nM | C[C@H]1COCCN1c1cc(CS(=O)(=O)c2ccncc2)nc(-c2ccc(NC(=O)NCc3cnn(C)c3)cc2)n1 [Example 53c, 1-[4-[4-[(3S)-3-methylmorpholin-4-yl]-6-(pyridin-4-ylsulfonylmethyl)pyrimidin-2-yl]phenyl]-3-[(1-methylpyrazol-4-yl)methyl]urea] |
| 280 nM | C[C@H]1COCCN1c1cc(CN(C)C2CC2)nc(-c2ccc(NC(=O)Nc3ccccc3)cc2)n1 [Example 30d, 1-[4-[4-[(cyclopropyl-methyl-amino)methyl]-6-[(3S)-3-methylmorpholin-4-yl]pyrimidin-2-yl]phenyl]-3-phenyl-urea] |
| 920 nM | CCNC(=O)Nc1cccc(-c2nc(CS(C)(=O)=O)cc(N3CCOC[C@@H]3C)n2)c1 [Example 8h, 3-Ethyl-1-[3-[4-[(3S)-3-methylmorpholin-4-yl]-6-(methylsulfonylmethyl)pyrimidin-2-yl]phenyl]urea] |
| 1100 nM | CN(CCS(C)(=O)=O)C(=O)Nc1ccc(-c2nc(CS(C)(=O)=O)cc(N3CCOCC3)n2)cc1 [Example 45x, 1-methyl-1-(2-methylsulfonylethyl)-3-[4-[4-(methylsulfonylmethyl)-6-morpholin-4-yl-pyrimidin-2-yl]phenyl]urea] |
| 1200 nM | C[C@H]1COCCN1c1cc(CS(C)(=O)=O)nc(-c2ccc(NC(=O)NCCN3CCOCC3)cc2)n1 [Example 35k, 1-[4-[4-[(3S)-3-methylmorpholin-4-yl]-6-(methylsulfonylmethyl)pyrimidin-2-yl]phenyl]-3-(2-morpholin-4-ylethyl)urea] |
| 41 nM | CS(=O)(=O)Cc1cc(N2CCOCC2)nc(-c2ccc(NC(=O)N3CCOCC3)cc2)n1 [Example 45g, N-[4-[4-(methylsulfonylmethyl)-6-morpholin-4-yl-pyrimidin-2-yl]phenyl]morpholine-4-carboxamide] |
| 21 nM | CNC(=O)Nc1ccc(-c2nc(CS(=O)(=O)c3nccs3)cc(N3CCOC[C@@H]3C)n2)cc1 [Example 33g, 3-methyl-1-[4-[4-[(3S)-3-methylmorpholin-4-yl]-6-(1,3-thiazol-2-ylsulfonylmethyl)pyrimidin-2-yl]phenyl]urea] |
| 3700 nM | CCNC(=O)NC1CCN(c2nc(CS(C)(=O)=O)cc(N3CCOC[C@@H]3C)n2)CC1 [Example 23a, 1-ethyl-3-[1-[4-[(3S)-3-methylmorpholin-4-yl]-6-(methylsulfonylmethyl)pyrimidin-2-yl]-4-piperidyl]urea] |
| 6400 nM | C[C@H]1COCCN1c1cc(CS(C)(=O)=O)nc(-c2ccc(NC(=O)NCCCN(C)C)cc2)n1 [Example 35a, 3-(3-dimethylaminopropyl)-1-[4-[4-[(3S)-3-methylmorpholin-4-yl]-6-(methylsulfonylmethyl)pyrimidin-2-yl]phenyl]urea] |
| 87 nM | C[C@H]1COCCN1c1cc(CNCCN(C)C)nc(-c2ccc(NC(=O)NC3CC3)cc2)n1 [Example 49g, 3-cyclopropyl-1-[4-[4-[(2-dimethylaminoethylamino)methyl]-6-[(3S)-3-methylmorpholin-4-yl]pyrimidin-2-yl]phenyl]urea] |
